From patent US12110276B2 (Genentech, Inc., priority 2021, dated 2024)

Key:
TEAD1 = TEAD1 (Homo sapiens (Human), UniProt P28347); assay: TR-FRET lipid pocket probe competition assay (Lipid HTRF), TEAD1; assay type: binding; conditions: 4 hours pre-incubation; read-out: Lipid HTRF TEAD1 IC50;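 note: His-tagged TEAD1 with biotinylated probe, detected via Europium anti-His and XL665 streptavidin, probe displacement lowers TR-FRET signal, IC50 from four-parameter nonlinear fit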
Protocol: (§1) His-tagged TEAD proteins are pre-incubated with TEAD project compounds for 30 minutes or 4 hours at room temperature. Biotinylated lipid pocket probes are then added to the TEAD/Compound mixture and incubated for 60 minutes at room temperature. The lipid pocket probe competes with the test compound for the TEAD lipid pocket until equilibrium is reached. After 60 minutes, Europium labelled anti-His (Perkin Elmer #AD0110) and XL665 labelled streptavidin (CIS Bio 610SAXAC) are added to the TEAD/test compound/lipid pocket mixture and incubated for 30 minutes or 4 hours. […] If a TEAD lipid pocket binder such as binds and displaces the lipid pocket probe, the disruption of the TEAD:probe interaction results in a decrease in TR-FRET signal. The potency of compounds as TEAD lipid pocket binders is determined by IC50 value generated using a non-linear 4 parameter curve fit.

TEAD3 = TEAD3 (Homo sapiens (Human), UniProt Q99594); assay: TR-FRET lipid pocket probe competition assay (Lipid HTRF), TEAD3; assay type: binding; conditions: 4 hours pre-incubation; read-out: Lipid HTRF TEAD3 IC50
TEAD4 = TEAD4 (Homo sapiens (Human), UniProt Q15561); assay: TR-FRET lipid pocket probe competition assay (Lipid HTRF), TEAD4; assay type: binding; conditions: 4 hours pre-incubation; read-out: Lipid HTRF TEAD4 IC50;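 note: His-tagged TEAD4 with biotinylated lipid-pocket probe, read by Europium anti-His and XL665 streptavidin, where probe displacement lowers the TR-FRET signal, IC50 from a four-parameter fit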
Protocol: as §1

TEAD2 = TEAD2 (Homo sapiens (Human), UniProt Q15562);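 note: TR-FRET competition assay with His-tagged TEAD protein and a biotinylated lipid pocket probe, compound pre-incubated 30 min or 4 h at room temperature, displacement lowers signal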
Sequence of TEAD2 (Q15562 whole entry, species assumed): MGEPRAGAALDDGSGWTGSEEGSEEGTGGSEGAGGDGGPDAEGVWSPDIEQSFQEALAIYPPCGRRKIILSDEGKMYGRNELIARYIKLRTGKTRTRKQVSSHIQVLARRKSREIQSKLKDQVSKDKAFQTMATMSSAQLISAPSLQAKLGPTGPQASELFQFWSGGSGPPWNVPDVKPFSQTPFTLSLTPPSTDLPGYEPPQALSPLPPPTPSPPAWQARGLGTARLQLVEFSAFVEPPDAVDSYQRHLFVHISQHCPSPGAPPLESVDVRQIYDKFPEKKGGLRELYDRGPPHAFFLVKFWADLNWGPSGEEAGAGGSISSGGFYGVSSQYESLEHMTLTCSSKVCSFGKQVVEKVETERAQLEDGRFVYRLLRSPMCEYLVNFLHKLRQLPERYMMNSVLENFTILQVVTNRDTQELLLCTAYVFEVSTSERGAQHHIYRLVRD

Sequence of TEAD4 (Q15561 whole entry, species assumed): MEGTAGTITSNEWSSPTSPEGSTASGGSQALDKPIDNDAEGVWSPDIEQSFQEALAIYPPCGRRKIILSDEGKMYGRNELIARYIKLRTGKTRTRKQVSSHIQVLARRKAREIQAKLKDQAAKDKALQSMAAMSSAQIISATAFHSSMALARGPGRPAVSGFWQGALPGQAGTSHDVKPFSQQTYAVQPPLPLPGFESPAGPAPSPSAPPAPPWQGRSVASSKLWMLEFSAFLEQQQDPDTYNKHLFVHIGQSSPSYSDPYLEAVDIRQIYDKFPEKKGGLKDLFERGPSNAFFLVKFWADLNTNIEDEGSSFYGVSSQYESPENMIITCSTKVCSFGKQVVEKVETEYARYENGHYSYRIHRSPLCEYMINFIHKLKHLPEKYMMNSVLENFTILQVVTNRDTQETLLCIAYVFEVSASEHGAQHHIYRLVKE
Sequence of TEAD1 (P28347 whole entry, species assumed): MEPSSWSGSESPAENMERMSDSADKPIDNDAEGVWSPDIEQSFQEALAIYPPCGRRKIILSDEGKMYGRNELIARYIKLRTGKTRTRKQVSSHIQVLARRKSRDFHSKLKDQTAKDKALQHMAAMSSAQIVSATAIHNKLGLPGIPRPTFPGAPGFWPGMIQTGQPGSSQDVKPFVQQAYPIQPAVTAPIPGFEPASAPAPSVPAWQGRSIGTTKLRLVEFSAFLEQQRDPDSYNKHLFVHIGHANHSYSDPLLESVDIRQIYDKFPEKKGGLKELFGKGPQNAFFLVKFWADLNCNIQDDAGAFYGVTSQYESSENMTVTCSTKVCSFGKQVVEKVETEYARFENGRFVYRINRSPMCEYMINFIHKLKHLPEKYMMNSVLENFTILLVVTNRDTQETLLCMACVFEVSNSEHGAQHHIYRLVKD
Sequence of TEAD3 (Q99594 whole entry, species assumed): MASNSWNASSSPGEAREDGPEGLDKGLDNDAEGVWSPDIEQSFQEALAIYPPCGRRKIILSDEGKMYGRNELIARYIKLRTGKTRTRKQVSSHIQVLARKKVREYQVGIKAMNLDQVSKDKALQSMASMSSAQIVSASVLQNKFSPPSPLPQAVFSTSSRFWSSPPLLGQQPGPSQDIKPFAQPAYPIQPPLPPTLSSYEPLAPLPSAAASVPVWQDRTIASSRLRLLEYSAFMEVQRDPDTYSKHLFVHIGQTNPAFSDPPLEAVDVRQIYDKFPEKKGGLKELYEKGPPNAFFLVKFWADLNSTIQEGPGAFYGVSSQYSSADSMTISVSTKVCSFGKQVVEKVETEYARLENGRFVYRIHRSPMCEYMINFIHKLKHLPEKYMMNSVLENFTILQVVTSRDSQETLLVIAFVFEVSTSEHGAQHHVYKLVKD

SMILES | IC50 (TEAD1) [nM] | IC50 (TEAD3) [nM] | IC50 (TEAD4) [nM] | IC50 (TEAD2) [nM]
C=C(Cl)C(=O)N1CC(c2nn(-c3ccc(OC(F)(F)F)cc3)c3nccc([C@H](O)CO)c23)C1 [Compound 109, (S)-2-Chloro-1-(3-(4-(1,2-dihydroxyethyl)-1-(4-(trifluoromethoxy)phenyl)-1H-pyrazolo[3,4-b]pyridin-3-yl)azetidin-1-yl)prop-2-en-1-one] | 23 | 18 | 5.15 | 7.8
C=C(F)C(=O)N1CC(c2nn(-c3ccc(OC(F)(F)F)cc3)c3nccc(-c4cnn(C)c4)c23)C1 [Compound 158, 2-Fluoro-1-(3-(4-(1-methyl-1H-pyrazol-4-yl)-1-(4-(trifluoromethoxy)phenyl)-1H-pyrazolo[3,4-b]pyridin-3-yl)azetidin-1-yl)prop-2-en-1-one] | 51 | 4300 | 64 | 690
O=C(/C=C\Cl)NCc1nn(-c2ccc(OC(F)(F)F)cc2)c2nccc(CO)c12 [Compound 99, (Z)-3-Chloro-N-((4-(hydroxymethyl)-1-(4-(trifluoromethoxy)phenyl)-1H-pyrazolo[3,4-b]pyridin-3-yl)methyl)acrylamide] | 3.3 | 87 | 5 | 28
C=CC(=O)NCc1nn(-c2ccc(OC(F)(F)F)cc2)c2nccc([C@@H](C)O)c12 [Compound 62, (R)-N-((4-(1-Hydroxyethyl)-1-(4-(trifluoromethoxy)phenyl)-1H-pyrazolo[3,4-b]pyridin-3-yl)methyl)acrylamide] | 58 | 860 | 13 | 71
C=CC(=O)N(C)Cc1nn(-c2ccc(OC(F)(F)F)cc2)c2ccccc12 [Compound 18, N-methyl-N-((1-(4-(trifluoromethoxy)phenyl)-1H-indazol-3-yl)methyl)acrylamide] | 6.8 | 100 | 3.4 | 66
C[C@@H](O)/C=C/C(=O)N1CC(c2nn(-c3ccc(OC(F)(F)F)cc3)c3nccc(CO)c23)C1 [Compound 66, (R,E)-4-Hydroxy-1-(3-(4-(hydroxymethyl)-1-(4-(trifluoromethoxy)phenyl)-1H-pyrazolo[3,4-b]pyridin-3-yl)azetidin-1-yl)pent-2-en-1-one] | 44 | 340 | 33 | 180
O=C(/C=C\Cl)NCc1nn(-c2ccc(OC(F)(F)F)cc2)c2nccc([C@H](O)CO)c12 [Compound 53, (S,Z)-3-chloro-N-((4-(1,2-dihydroxyethyl)-1-(4-(trifluoromethoxy)phenyl)-1H-pyrazolo[3,4-b]pyridin-3-yl)methyl)acrylamide] | 45 | 50000 | 3.5 | 36
C=CC(=O)NCc1nn(-c2ccc(OC(F)(F)F)cc2)c2nccc(N3CCC[C@@H](O)C3)c12 (stereo in doubt) [Compound 65, N-((4-(3-hydroxypiperidin-1-yl)-1-(4-(trifluoromethoxy)phenyl)-1H-pyrazolo[3,4-b]pyridin-3-yl)methyl)acrylamide] | 150 | 27000 | 31 | 99
C#Cc1ccnc2c1c(C1CN(C(=O)C=C)C1)nn2-c1ccc(OC(F)(F)F)cc1 [Compound 48, 1-(3-(4-Ethynyl-1-(4-(trifluoromethoxy)phenyl)-1H-pyrazolo[3,4-b]pyridin-3-yl)azetidin-1-yl)prop-2-en-1-one] | 3.5 | 4.8 | 0.88 | 2.3
C=CC(=O)NCc1nn(-c2ccc(S(F)(F)(F)(F)F)cc2)c2cccnc12 [Compound 12, N-((1-(4-(pentafluoro-λ^6-sulfanyl)phenyl)-1H-pyrazolo[4,3-b]pyridin-3-yl)methyl)acrylamide] | 48 | 630 | 43 | 2800
C=C(F)C(=O)N1CC(c2nn(-c3ccc(OC(F)(F)F)cc3)c3nccc(-c4cnn(C5COC5)c4)c23)C1 [Compound 175, 2-fluoro-1-(3-(4-(1-(oxetan-3-yl)-1H-pyrazol-4-yl)-1-(4-(trifluoromethoxy)phenyl)-1H-pyrazolo[3,4-b]pyridin-3-yl)azetidin-1-yl)prop-2-en-1-one] | 62 | 50000 | 45 | 420
C=C(F)C(=O)N1CC(c2nn(-c3ccc(OC(F)(F)F)cc3)c3nccc(-c4cn[nH]c4)c23)C1 [Compound 182, 1-(3-(4-(1H-pyrazol-4-yl)-1-(4-(trifluoromethoxy)phenyl)-1H-pyrazolo[3,4-b]pyridin-3-yl)azetidin-1-yl)-2-fluoroprop-2-en-1-one] | 25 | 440 | 13 | 130
C=CC(=O)NCc1nn(-c2ccc(OC(F)(F)F)cc2)c2nccc(-c3cnn(CC(N)=O)c3)c12 [Compound 165, N-((4-(1-(2-amino-2-oxoethyl)-1H-pyrazol-4-yl)-1-(4-(trifluoromethoxy)phenyl)-1H-pyrazolo[3,4-b]pyridin-3-yl)methyl)acrylamide] | 120 | 50000 | 100 | 40
C=C(F)C(=O)N1CC(c2nn(-c3ccc(OC(F)(F)F)cc3)c3nccc(-c4cnn(C(C)C)c4)c23)C1 [Compound 178, 2-fluoro-1-(3-(4-(1-isopropyl-1H-pyrazol-4-yl)-1-(4-(trifluoromethoxy)phenyl)-1H-pyrazolo[3,4-b]pyridin-3-yl)azetidin-1-yl)prop-2-en-1-one] | 87 | 50000 | 200 | 860
C/C=C(\C)C(=O)N1CC(c2nn(-c3ccc(OC(F)(F)F)cc3)c3nccc(CO)c23)C1 [Compound 151, (E)-1-(3-(4-(Hydroxymethyl)-1-(4-(trifluoromethoxy)phenyl)-1H-pyrazolo[3,4-b]pyridin-3-yl)azetidin-1-yl)-2-methylbut-2-en-1-one] | 680 | 50000 | 570 | 630
C=CC(=O)NCc1nn(-c2ccc(OC(F)(F)F)cc2)c2nccc(O[C@H]3C[C@H](O)C3)c12 [Compound 67, N-((4-(trans-3-Hydroxycyclobutoxy)-1-(4-(trifluoromethoxy)phenyl)-1H-pyrazolo[3,4-b]pyridin-3-yl)methyl)acrylamide] | 100 | 50000 | 31 | 365
C=C(F)C(=O)N1CC(c2nn(-c3ccc(OC(F)(F)F)cc3)c3nccc(-c4cnn(CC(=O)N(C)C)c4)c23)C1 [Compound 180, 2-(4-(3-(1-(2-fluoroacryloyl)azetidin-3-yl)-1-(4-(trifluoromethoxy)phenyl)-1H-pyrazolo[3,4-b]pyridin-4-yl)-1H-pyrazol-1-yl)-N,N-dimethylacetamide] | 43 | 50000 | 110 | 160
C=CC(=O)NCc1nn(-c2ccc(OC(F)(F)F)cc2)c2nccc([C@H](C)O)c12 [Compound 63, (S)-N-((4-(1-hydroxyethyl)-1-(4-(trifluoromethoxy)phenyl)-1H-pyrazolo[3,4-b]pyridin-3-yl)methyl)acrylamide] | 135 | 10500 | 78.5 | 124
C=C(F)C(=O)N1CC(c2nn(-c3ccc(OC(F)(F)F)cc3)c3nccc(NC(=O)CO)c23)C1 [Compound 42, N-(3-(1-(2-Fluoroacryloyl)azetidin-3-yl)-1-(4-(trifluoromethoxy)phenyl)-1H-pyrazolo[3,4-b]pyridin-4-yl)-2-hydroxyacetamide] | 20 | 27 | 25 | 200
C=CC(=O)NCc1nn(-c2ccc(OC(F)(F)F)cc2)c2nccc(N3CC(OC)C3)c12 [Compound 118, N-((4-(3-methoxyazetidin-1-yl)-1-(4-(trifluoromethoxy)phenyl)-1H-pyrazolo[3,4-b]pyridin-3-yl)methyl)acrylamide] | 16 | 50000 | 4.3 | 97
C=C(F)C(=O)N1CC(c2nn(-c3ccc(OC(F)(F)F)cc3)c3nccc(N4CC(F)(CO)C4)c23)C1 [Compound 39, 2-Fluoro-1-(3-(4-(3-fluoro-3-(hydroxymethyl)azetidin-1-yl)-1-(4-(trifluoromethoxy)phenyl)-1H-pyrazolo[3,4-b]pyridin-3-yl)azetidin-1-yl)prop-2-en-1-one] | 42 | 840 | 5.4 | 19
C=CC(=O)NCc1nn(-c2ccc(OC(F)(F)F)cc2)c2nccc(N3CCC[C@H](O)C3)c12 (stereo in doubt) [Compound 33, N-((4-(3-hydroxypiperidin-1-yl)-1-(4-(trifluoromethoxy)phenyl)-1H-pyrazolo[3,4-b]pyridin-3-yl)methyl)acrylamide] | 25 | 17000 | 11 | 110
C=CC(=O)NCc1nn(-c2ccc(OC(F)(F)F)cc2)c2nccc(-c3cnn(C4CC4)c3)c12 [Compound 173, N-((4-(1-cyclopropyl-1H-pyrazol-4-yl)-1-(4-(trifluoromethoxy)phenyl)-1H-pyrazolo[3,4-b]pyridin-3-yl)methyl)acrylamide] | 86 | 26200 | 52.5 | 382
C=CC(=O)NCc1nn(-c2ccc(OC(F)(F)F)cc2)c2nccc(C(=O)NCCO)c12 [Compound 25, 3-(Acrylamidomethyl)-N-(2-hydroxyethyl)-1-(4-(trifluoromethoxy)phenyl)-1H-pyrazolo[3,4-b]pyridine-4-carboxamide] | 960 | 3700 | 95 | 6000
